Results: PubChem BioAssay (NCI)
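Five compound concentrations were applied to cells in 96-well plates for 48 hours; endpoints were derived by simple linear interpolation of the resulting dose-response curve. Here, GI50 denotes the concentration required for 50% inhibition of growth. Definition used: TGI = concentration required for complete inhibition of growth.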

Key:
Test in all cases: inhibition of tumour cell growth, NCI panel, 48 h
[1] = system: ACHN renal
[2] = system: OVCAR-3 ovarian
[3] = system: IGROV1 ovarian
[4] = system: HL-60(TB) leukemia
[5] = system: SF-539 CNS
[6] = system: NCI-H23 lung
[7] = system: NCI/ADR-RES ovarian
[8] = system: SK-MEL-2 melanoma
[9] = system: SF-295 CNS
[10] = system: COLO 205 colon
[11] = system: SR leukemia
[12] = system: RXF 393 renal
[13] = system: K-562 leukemia
[14] = system: M14 melanoma
[15] = system: CCRF-CEM leukemia
[16] = system: EKVX NSCLC
[17] = system: MDA-MB-435
[18] = system: MDA-MB-231 breast
[19] = system: 786-0 renal
[20] = system: HS 578T breast
[21] = system: SN12C renal
[22] = system: A498 renal
[23] = system: OVCAR-8 ovarian
[24] = system: UO-31 renal
[25] = system: DU-145 prostate
[26] = system: NCI-H226 lung
[27] = system: OVCAR-4 ovarian
[28] = system: SNB-75 CNS
[29] = system: HCT-15 colon
[30] = system: UACC-257 melanoma
[31] = system: OVCAR-5 ovarian
[32] = system: HOP-92 NSCLC
[33] = system: SF-268 CNS
[34] = system: BT-549 breast
[35] = system: SK-MEL-5 melanoma
[36] = system: T-47D breast
[37] = system: PC-3 prostate
[38] = system: UACC-62 melanoma
[39] = system: U251 CNS
[40] = system: NCI-H522 lung
[41] = system: HT29 colon
[42] = system: SW-620 colon
[43] = system: LOX IMVI melanoma
[44] = system: RPMI-8226 leukemia
[45] = system: MALME-3M melanoma
[46] = system: MCF7 breast
[47] = system: HOP-62 NSCLC
[48] = system: CAKI-1 renal
[49] = system: MOLT-4 leukemia
[50] = system: NCI-H460 lung
[51] = system: SK-OV-3 ovarian
[52] = system: SNB-19 CNS
[53] = system: A549 NSCLC
[54] = system: KM12 colon
[55] = system: HCC-2998 colon
[56] = system: SK-MEL-28 melanoma
[57] = system: TK-10 renal
[58] = system: HCT-116 colon

Compound: COC(=O)c1c2c(c(C)[n+]([O-])c1C)C(=O)C=C(NCc1cccc(OC)c1)C2=O
- GI50 [1]: 1010 nM
- TGI [1]: 2190 nM
- GI50 [2]: 257 nM
- TGI [2]: 743 nM
- GI50 [3]: 579 nM
- TGI [3]: 2180 nM
- GI50 [4]: 317 nM
- TGI [4]: 1150 nM
- GI50 [5]: 879 nM
- TGI [5]: 2110 nM
- GI50 [6]: 515 nM
- TGI [6]: 2570 nM
- GI50 [7]: 441 nM
- TGI [7]: 3150 nM
- GI50 [8]: 1150 nM
- TGI [8]: 2780 nM
- GI50 [9]: 772 nM
- TGI [9]: 2100 nM
- GI50 [10]: 293 nM
- TGI [10]: 928 nM
- GI50 [11]: 561 nM
- TGI [11]: 8110 nM
- GI50 [12]: 1270 nM
- TGI [12]: 2630 nM
- GI50 [13]: 370 nM
- TGI [13]: 6510 nM
- GI50 [14]: 405 nM
- TGI [14]: 1540 nM
- GI50 [15]: 471 nM
- GI50 [16]: 1010 nM
- TGI [16]: 2260 nM
- GI50 [17]: 178 nM
- TGI [17]: 330 nM
- GI50 [18]: 358 nM
- TGI [18]: 4830 nM
- GI50 [19]: 1880 nM
- TGI [19]: 4850 nM
- GI50 [20]: 1640 nM
- TGI [20]: 6250 nM
- GI50 [21]: 323 nM
- TGI [21]: 1240 nM
- GI50 [22]: 1310 nM
- TGI [22]: 2590 nM
- GI50 [23]: 290 nM
- TGI [23]: 1400 nM
- GI50 [24]: 1130 nM
- TGI [24]: 2440 nM
- GI50 [25]: 1060 nM
- TGI [25]: 2290 nM
- GI50 [26]: 1720 nM
- TGI [26]: 4480 nM
- GI50 [27]: 246 nM
- TGI [27]: 993 nM
- GI50 [28]: 1640 nM
- TGI [28]: 3010 nM
- GI50 [29]: 331 nM
- TGI [29]: 1610 nM
- GI50 [30]: 254 nM
- TGI [30]: 786 nM
- GI50 [31]: 1310 nM
- TGI [31]: 2770 nM
- GI50 [32]: 1990 nM
- TGI [32]: 4700 nM
- GI50 [33]: 1260 nM
- TGI [33]: 4210 nM
- GI50 [34]: 1290 nM
- TGI [34]: 2650 nM
- GI50 [35]: 171 nM
- TGI [35]: 334 nM
- GI50 [36]: 286 nM
- TGI [36]: 1620 nM
- GI50 [37]: 333 nM
- TGI [37]: 2730 nM
- GI50 [38]: 250 nM
- TGI [38]: 1070 nM
- GI50 [39]: 646 nM
- TGI [39]: 2080 nM
- GI50 [40]: 429 nM
- TGI [40]: 2240 nM
- GI50 [41]: 370 nM
- TGI [41]: 1540 nM
- GI50 [42]: 318 nM
- TGI [42]: 1260 nM
- GI50 [43]: 249 nM
- TGI [43]: 1440 nM
- GI50 [44]: 848 nM
- TGI [44]: 4290 nM
- GI50 [45]: 150 nM
- TGI [45]: 341 nM
- GI50 [46]: 258 nM
- TGI [46]: 826 nM
- GI50 [47]: 1580 nM
- TGI [47]: 3390 nM
- GI50 [48]: 696 nM
- TGI [48]: 2220 nM
- GI50 [49]: 1090 nM
- TGI [49]: 3540 nM

Compound: N#C/C(=C/C=C(\Cl)c1ccc(Cl)cc1)C(N)=O
- GI50 [1]: 2370 nM
- TGI [1]: 6390 nM
- GI50 [2]: 269 nM
- TGI [2]: 1760 nM
- GI50 [3]: > 20000 nM
- TGI [3]: > 100000 nM
- GI50 [5]: 3190 nM
- TGI [5]: 9270 nM
- GI50 [6]: 2400 nM
- TGI [6]: 8830 nM
- GI50 [7]: 2670 nM
- TGI [7]: 7430 nM
- GI50 [8]: > 52500 nM
- TGI [8]: > 93600 nM
- GI50 [9]: 1650 nM
- TGI [9]: 3450 nM
- GI50 [10]: 5240 nM
- TGI [10]: > 55800 nM
- GI50 [11]: 2260 nM
- TGI [11]: 20400 nM
- GI50 [12]: 3750 nM
- TGI [12]: > 57600 nM
- GI50 [13]: 1470 nM
- TGI [13]: > 100000 nM
- GI50 [14]: 1940 nM
- TGI [14]: 9840 nM
- GI50 [50]: 4650 nM
- TGI [50]: > 100000 nM
- GI50 [15]: 2810 nM
- TGI [15]: > 100000 nM
- GI50 [16]: 7740 nM
- TGI [16]: 17400 nM
- GI50 [17]: 1930 nM
- TGI [17]: 4120 nM
- GI50 [18]: 1970 nM
- TGI [18]: 4820 nM
- GI50 [51]: 14900 nM
- TGI [51]: 42300 nM
- GI50 [19]: 1870 nM
- TGI [19]: 4200 nM
- GI50 [52]: 8130 nM
- TGI [52]: 22700 nM
- GI50 [20]: 3070 nM
- TGI [20]: 9910 nM
- GI50 [21]: 4380 nM
- TGI [21]: 18700 nM
- GI50 [22]: 13200 nM
- TGI [22]: 27700 nM
- GI50 [53]: 7540 nM
- TGI [53]: 15400 nM
- GI50 [23]: 6390 nM
- TGI [23]: 12600 nM
- TGI [24]: > 46800 nM
- GI50 [25]: 3310 nM
- TGI [25]: 12500 nM
- GI50 [26]: 4960 nM
- TGI [26]: 13900 nM
- GI50 [27]: 4910 nM
- TGI [27]: > 48200 nM
- GI50 [29]: 2790 nM
- TGI [29]: > 32500 nM
- GI50 [30]: 6170 nM
- TGI [30]: 11400 nM
- GI50 [31]: 4510 nM
- TGI [31]: 17700 nM
- GI50 [54]: 2100 nM
- TGI [54]: 4690 nM
- GI50 [32]: 2470 nM
- TGI [32]: 9720 nM
- GI50 [33]: 3460 nM
- TGI [33]: 13600 nM
- GI50 [55]: 2660 nM
- TGI [55]: 7710 nM
- GI50 [34]: 7000 nM
- TGI [34]: 13900 nM
- GI50 [56]: 3280 nM
- TGI [56]: 9880 nM
- GI50 [35]: 4560 nM
- TGI [35]: 15100 nM
- GI50 [36]: 3260 nM
- TGI [36]: 26400 nM
- GI50 [37]: 2180 nM
- TGI [37]: 5550 nM
- GI50 [38]: 5870 nM
- TGI [38]: 20600 nM
- GI50 [39]: 2290 nM
- TGI [39]: 5320 nM
- GI50 [40]: > 22700 nM
- TGI [40]: > 62200 nM
- GI50 [57]: 1610 nM
- TGI [57]: 3310 nM
- GI50 [41]: 3380 nM
- TGI [41]: > 36500 nM
- GI50 [42]: 2100 nM
- TGI [42]: 4530 nM
- GI50 [58]: 402 nM
- TGI [58]: 1490 nM
- GI50 [43]: 976 nM
- TGI [43]: 6910 nM
- GI50 [44]: 2140 nM
- TGI [44]: > 100000 nM
- GI50 [45]: 1480 nM
- TGI [45]: 3550 nM
- GI50 [46]: 4910 nM
- TGI [46]: > 100000 nM
- GI50 [47]: 2360 nM
- TGI [47]: 4330 nM
- GI50 [48]: 1290 nM
- TGI [48]: 2990 nM
- GI50 [49]: 660 nM
- TGI [49]: > 39800 nM
